Results published in patent US20220242844A1, “CANNABINOID DERIVATIVES” (CANOPY GROWTH CORPORATION, priority 2019, published 2022).
Where two headings read alike, the source gives them in different places.

Key:
human CB2 receptor = target: T1, human CB2 receptor (Homo sapiens, UniProt P34972); test: CB2 radioligand ([3H]CP 55,940) competitive binding assay; conditions: for Selectivity CB2: fold difference in binding affinity, CB2 over CB1, 1.00 = about the same affinity for both receptors
T1 construct: host or cells: CHO-K1 (Chinese hamster ovary) cells, stably transfected; membranes prepared in house

human CB1 receptor = target: T2, human CB1 receptor (Homo sapiens, UniProt P21554); test: CB1 radioligand ([3H]CP 55,940) competitive binding assay; conditions: for Selectivity CB1: fold difference in binding affinity, CB1 over CB2, 1.00 = about the same affinity for both receptors
T2 construct: host or cells: CHO-K1 (Chinese hamster ovary) cells, stably transfected; membranes prepared in house

[1] = [3H]CP 55,940 displacement, membranes of CHO-K1 cells expressing human CB2 receptor, read-out: CB2 IC50
[2] = [3H]CP 55,940 displacement, membranes of CHO-K1 cells expressing human CB1 receptor, read-out: CB1 IC50

T2 sequence (P21554 whole entry): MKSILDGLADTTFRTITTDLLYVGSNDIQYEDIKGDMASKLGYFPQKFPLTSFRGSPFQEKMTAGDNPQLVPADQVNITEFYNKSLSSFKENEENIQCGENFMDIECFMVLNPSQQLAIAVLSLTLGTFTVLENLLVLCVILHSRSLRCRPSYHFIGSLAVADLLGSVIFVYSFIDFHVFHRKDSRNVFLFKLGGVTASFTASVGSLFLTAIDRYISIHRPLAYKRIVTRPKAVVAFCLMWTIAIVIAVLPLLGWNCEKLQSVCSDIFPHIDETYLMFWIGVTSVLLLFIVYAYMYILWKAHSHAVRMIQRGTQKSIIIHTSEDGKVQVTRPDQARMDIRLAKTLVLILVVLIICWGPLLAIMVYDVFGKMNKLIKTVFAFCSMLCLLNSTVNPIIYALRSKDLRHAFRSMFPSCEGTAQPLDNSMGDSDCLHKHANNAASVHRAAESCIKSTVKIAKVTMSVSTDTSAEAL
T1 sequence (P34972 whole entry): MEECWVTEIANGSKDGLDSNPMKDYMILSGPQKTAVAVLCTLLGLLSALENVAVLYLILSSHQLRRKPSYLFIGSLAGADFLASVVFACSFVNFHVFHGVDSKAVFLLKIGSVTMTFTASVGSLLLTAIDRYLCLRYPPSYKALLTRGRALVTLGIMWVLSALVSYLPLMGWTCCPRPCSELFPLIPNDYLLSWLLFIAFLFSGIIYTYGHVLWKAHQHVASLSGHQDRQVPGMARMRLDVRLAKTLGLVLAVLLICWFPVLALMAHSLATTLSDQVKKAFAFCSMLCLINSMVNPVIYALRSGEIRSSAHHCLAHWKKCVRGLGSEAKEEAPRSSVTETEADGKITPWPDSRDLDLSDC

CCCCCc1cc(O)c(-c2cccc(C)c2)c2c1C(=O)OC(C)(C)O2 [Compound 2a, 7-hydroxy-2,2-dimethyl-8-(m-tolyl)-5-pentyl-1,3-benzodioxin-4-one]
IC50 (human CB2 receptor; [1]): 1 to 9.9 µM | Selectivity CB2 (human CB2 receptor): 3.08 fold | IC50 (human CB1 receptor; [2]): 10 to 19.9 µM

CCCCCc1cc(O)c(C2C=C(C)CCC2)c2c1C(=O)OC(CC(C)=O)O2 (centres unmarked) [Compound 14c, 7-hydroxy-8-(3-methylcyclohex-2-en-1-yl)-2-(2-oxopropyl)-5-pentyl-4H-benzo[d][1,3]dioxin-4-one]
IC50 (human CB2 receptor; [1]): 1 to 9.9 µM | Selectivity CB2 (human CB2 receptor): 2.06 fold | IC50 (human CB1 receptor; [2]): 1 to 9.9 µM

C=C(C)[C@@H]1CCC(C)=C[C@H]1c1c(O)cc(CCCCC)c2c1OC(C)(C)OC2=O [Compound 2d, 7-hydroxy-2,2-dimethyl-8-(3-methyl-6-(prop-1-en-2-yl)cyclohex-2-en-1-yl)-5-pentyl-4H-benzo[d][1,3]dioxin-4-one]
IC50 (human CB2 receptor; [1]): 10 to 19.9 µM | Selectivity CB2 (human CB2 receptor): 2.00 fold | IC50 (human CB1 receptor; [2]): > 20 µM

C=C(C)[C@@H]1CCC(C)=C[C@H]1c1c(O)cc(CCCCC)c2c1OC(CC(C)=O)OC2=O (some centres unmarked) [Compound 14d, 7-hydroxy-8-(3-methyl-6-(prop-1-en-2-yl)cyclohex-2-en-1-yl)-2-(2-oxopropyl)-5-pentyl-4H-benzo[d][1,3]dioxin-4-one]
IC50 (human CB2 receptor; [1]): 1 to 9.9 µM | Selectivity CB2 (human CB2 receptor): 4.92 fold | IC50 (human CB1 receptor; [2]): 10 to 19.9 µM

CCCCCc1cc(O)c(C2C=C(C)CCC2)c2c1C(=O)OCO2 (centres unmarked) [Compound 1c, 7-hydroxy-8-(3-methylcyclohex-2-en-1-yl)-5-pentyl-4H-benzo[d][1,3]dioxin-4-one]
IC50 (human CB2 receptor; [1]): 1 to 9.9 µM

C=C(C)[C@@H]1CCC(C)=C[C@H]1c1c(O)cc(CCCCC)c2c1OCOC2=O [Compound 1d, 7-hydroxy-8-(3-methyl-6-(prop-1-en-2-yl)cyclohex-2-en-1-yl)-5-pentyl-4H-benzo[d][1,3]dioxin-4-one]
IC50 (human CB2 receptor; [1]): 1 to 9.9 µM | Selectivity CB2 (human CB2 receptor): 1.00 fold | IC50 (human CB1 receptor; [2]): 1 to 9.9 µM | Selectivity CB1 (human CB1 receptor): 1.00 fold

C=C(C)[C@@H]1CCC(C)=C[C@H]1c1c(O)cc(CCCCC)c2c1OC(C)OC2=O (some centres unmarked) [Compound 16d, 7-hydroxy-2-methyl-8-(3-methyl-6-(prop-1-en-2-yl)cyclohex-2-en-1-yl)-5-pentyl-4H-benzo[d][1,3]dioxin-4-one]
IC50 (human CB2 receptor): 1 to 9.9 µM | Selectivity CB2 (human CB2 receptor): 2.44 fold | IC50 (human CB1 receptor): 1 to 9.9 µM

C=C(C)C1CCC(C)=CC1c1c(O)cc(CCCCC)c2c1OC(C)(CC(C)=O)OC2=O (centres unmarked) [Compound 7d, 7-hydroxy-2-methyl-8-(3-methyl-6-(prop-1-en-2-yl)cyclohex-2-en-1-yl)-2-(2-oxopropyl)-5-pentyl-4H-benzo[d][1,3]dioxin-4-one]
IC50 (human CB2 receptor): 1 to 9.9 µM | Selectivity CB2 (human CB2 receptor): 13.33 fold | IC50 (human CB1 receptor): > 20 µM

C=C(C)[C@@H]1CCC(C)=C[C@H]1c1c(O)cc(CCCCC)c2c1OC(CC)OC2=O (some centres unmarked) [Compound 17d, 2-ethyl-7-hydroxy-8-(3-methyl-6-(prop-1-en-2-yl)cyclohex-2-en-1-yl)-5-pentyl-4H-benzo[d][1,3]dioxin-4-one]
IC50 (human CB2 receptor; [1]): < 1 µM | Selectivity CB2 (human CB2 receptor): 4.35 fold | IC50 (human CB1 receptor; [2]): 1 to 9.9 µM

CCCCCc1cc(O)c(C2C=C(C)CCC2)c2c1C(=O)OC(C)(C)O2 (centres unmarked) [Compound 2c, 7-hydroxy-2,2-dimethyl-8-(3-methylcyclohex-2-en-1-yl)-5-pentyl-4H-benzo[d][1,3]dioxin-4-one]
IC50 (human CB2 receptor): 10 to 19.9 µM | IC50 (human CB1 receptor): 1 to 9.9 µM | Selectivity CB1 (human CB1 receptor): 2.76 fold

C=C(C)[C@@H]1CCC(C)=C[C@H]1c1c(O)cc(CCCCC)c2c1OC(C)(COC)OC2=O (some centres unmarked) [Compound 11d, 7-hydroxy-2-(methoxymethyl)-2-methyl-8-(3-methyl-6-(prop-1-en-2-yl)cyclohex-2-en-1-yl)-5-pentyl-4H-benzo[d][1,3]dioxin-4-one]
IC50 (human CB2 receptor): 10 to 19.9 µM | Selectivity CB2 (human CB2 receptor): 1.89 fold | IC50 (human CB1 receptor): > 20 µM

C=C(C)C1CCC(C)=CC1c1c(O)cc(CCCCC)c2c1OC(c1ccccc1)OC2=O (centres unmarked) [Compound 3d, 7-hydroxy-8-(3-methyl-6-(prop-1-en-2-yl)cyclohex-2-en-1-yl)-5-pentyl-2-phenyl-4H-benzo[d][1,3]dioxin-4-one]
IC50 (human CB2 receptor; [1]): 1 to 9.9 µM | IC50 (human CB1 receptor; [2]): < 1 µM | Selectivity CB1 (human CB1 receptor): 2.53 fold

CCCCCc1cc(O)c(-c2cccc(C)c2)c2c1C(=O)OC(CC(C)=O)(c1ccccc1)O2 (centres unmarked) [Compound 12a, 2-acetonyl-7-hydroxy-8-(m-tolyl)-5-pentyl-2-phenyl-1,3-benzodioxin-4-one]
IC50 (human CB2 receptor): 10 to 19.9 µM | Selectivity CB2 (human CB2 receptor): 1.53 fold | IC50 (human CB1 receptor): > 20 µM

C=C(C)[C@@H]1CCC(C)=C[C@H]1c1c(O)cc(CCC)c2c1OCOC2=O [Compound 23d, 7-hydroxy-8-(3-methyl-6-(prop-1-en-2-yl)cyclohex-2-en-1-yl)-5-propyl-4H-benzo[d][1,3]dioxin-4-one]
IC50 (human CB2 receptor; [1]): 1 to 9.9 µM | Selectivity CB2 (human CB2 receptor): 1.00 fold | IC50 (human CB1 receptor; [2]): 1 to 9.9 µM | Selectivity CB1 (human CB1 receptor): 1.00 fold

C=C(C)[C@@H]1CCC(C)=C[C@H]1c1c(O)cc(CCC)c2c1OC(CC(C)=O)(c1ccccc1)OC2=O (some centres unmarked) [Compound 24d, 7-hydroxy-8-(3-methyl-6-(prop-1-en-2-yl)cyclohex-2-en-1-yl)-2-(2-oxopropyl)-2-phenyl-5-propyl-4H-benzo[d][1,3]dioxin-4-one]
IC50 (human CB2 receptor): 1 to 9.9 µM | Selectivity CB2 (human CB2 receptor): 1.00 fold | IC50 (human CB1 receptor): 1 to 9.9 µM | Selectivity CB1 (human CB1 receptor): 1.00 fold

CCCCCc1cc(O)c(C2C=C(C)CCC2)c2c1C(=O)OC(CC(C)=O)(c1ccccc1)O2 (centres unmarked) [Compound 12c, 7-hydroxy-8-(3-methylcyclohex-2-en-1-yl)-2-(2-oxopropyl)-5-pentyl-2-phenyl-4H-benzo[d][1,3]dioxin-4-one]
IC50 (human CB2 receptor): 1 to 9.9 µM | Selectivity CB2 (human CB2 receptor): 1.37 fold | IC50 (human CB1 receptor): 1 to 9.9 µM

CCCCCc1cc(O)c(C2C=C(C)CCC2)c2c1C(=O)OC1(CCCC1)O2 (centres unmarked) [Compound 9c, 7-hydroxy-8-(3-methylcyclohex-2-en-1-yl)-5-pentyl-spiro[1,3-benzodioxine-2,1′-cyclopentane]-4-one]
IC50 (human CB2 receptor): 1 to 9.9 µM | Selectivity CB2 (human CB2 receptor): 3.32 fold | IC50 (human CB1 receptor): 10 to 19.9 µM

C=C(C)[C@@H]1CCC(C)=C[C@H]1c1c(O)cc(CCCCC)c2c1OC(CC(C)=O)(c1ccccc1)OC2=O (some centres unmarked) [Compound 12d, 7-hydroxy-8-(3-methyl-6-(prop-1-en-2-yl)cyclohex-2-en-1-yl)-2-(2-oxopropyl)-5-pentyl-2-phenyl-4H-benzo[d][1,3]dioxin-4-one]
IC50 (human CB2 receptor): 1 to 9.9 µM | Selectivity CB2 (human CB2 receptor): 1.00 fold | IC50 (human CB1 receptor): 1 to 9.9 µM | Selectivity CB1 (human CB1 receptor): 1.00 fold
